{"source": "ChEMBL document CHEMBL4190187", "about": "“Discovery of pyrazolopyrimidine derivatives as novel inhibitors of ataxia telangiectasia and rad3 related protein (ATR)” (Bioorg Med Chem Lett, 2017)", "key": {"[1]": {"tested_on": "Hepatocyte growth factor receptor (Homo sapiens), P08581 [Y1248H]", "test": "Inhibition of recombinant human Met Y1248H mutant (974 to end residues) at 1 uM using KKKGQEEEYVFIE as substrate after 40 mins in presence of [gamma-33P]ATP by scintillation counting method"}, "[2]": {"biological_target": "Cyclin-dependent kinase-like 1 (Homo sapiens) (UniProt Q00532)", "test": "Inhibition of recombinant human CDKL1 (1 to 303 residues) at 1 uM using RRRFRPASPLRGPPK as substrate after 120 mins in presence of [gamma-33P]ATP by scintillation counting method"}, "[3]": {"biological_target": "Serine/threonine-protein kinase Sgk3 (Homo sapiens) (UniProt Q96BR1)", "test": "Inhibition of recombinant human SGK3 (119 to end residues) at 1 uM using GRPRTSSFAEGKK as substrate after 40 mins in presence of [gamma-33P]ATP by scintillation counting method"}, "[4]": {"biological_target": "PI3K p110 alpha/p85 alpha (Mus musculus) (UniProt P26450+P42337)", "test": "Inhibition of recombinant full-length mouse p110a H1047R mutant/p85a at 1 uM using phosphatidylinositol 4,5-bisphosphate as substrate after 40 mins in presence of [gamma-33P]ATP by scintillation counting method", "assay_type": "protein-complex assay"}, "[5]": {"biological_target": "Calcium/calmodulin-dependent protein kinase type IV (Homo sapiens) (UniProt Q16566)", "test": "Inhibition of recombinant full-length human CAMK4 at 1 uM using […] after 40 mins in presence of [gamma-33P]ATP by scintillation counting method"}, "[6]": {"tested_on": "Hepatocyte growth factor receptor (Homo sapiens), P08581 [M1268T]", "test": "Inhibition of recombinant human Met M1268T mutant (974 to end residues) at 1 uM using KKKGQEEEYVFIE as substrate after 40 mins in presence of [gamma-33P]ATP by scintillation counting method"}, "[7]": {"biological_target": "Calcium/calmodulin-dependent protein kinase type 1D (Homo sapiens) (UniProt Q8IU85)", "test": "Inhibition of recombinant full-length human CAMK1delta at 1 uM using […] after 40 mins in presence of [gamma-33P]ATP by scintillation counting method"}, "[8]": {"biological_target": "Serine/threonine-protein kinase 32C (Homo sapiens) (UniProt Q86UX6)", "sequence (Q86UX6 whole entry)": "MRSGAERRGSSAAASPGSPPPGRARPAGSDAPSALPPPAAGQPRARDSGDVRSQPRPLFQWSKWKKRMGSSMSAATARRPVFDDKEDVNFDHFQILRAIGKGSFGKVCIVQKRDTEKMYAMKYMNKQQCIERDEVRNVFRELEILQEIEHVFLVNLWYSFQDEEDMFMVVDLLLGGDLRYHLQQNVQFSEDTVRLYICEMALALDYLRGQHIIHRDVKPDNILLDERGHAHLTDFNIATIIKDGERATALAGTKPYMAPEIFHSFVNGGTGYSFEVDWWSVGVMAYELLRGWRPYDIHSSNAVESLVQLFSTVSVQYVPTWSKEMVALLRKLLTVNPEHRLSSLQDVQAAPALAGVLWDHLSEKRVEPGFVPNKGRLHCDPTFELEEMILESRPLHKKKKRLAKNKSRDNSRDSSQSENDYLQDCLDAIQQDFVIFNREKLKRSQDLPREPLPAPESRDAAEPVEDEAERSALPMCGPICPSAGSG", "test": "Inhibition of recombinant full-length human STK32C at 1 uM using casein as substrate after 120 mins in presence of [gamma-33P]ATP by scintillation counting method"}, "[9]": {"biological_target": "Casein kinase I isoform gamma-1 (Homo sapiens) (UniProt Q9HCP0)", "sequence (Q9HCP0 whole entry, looked up, the tested form may be a part, canonical isoform)": "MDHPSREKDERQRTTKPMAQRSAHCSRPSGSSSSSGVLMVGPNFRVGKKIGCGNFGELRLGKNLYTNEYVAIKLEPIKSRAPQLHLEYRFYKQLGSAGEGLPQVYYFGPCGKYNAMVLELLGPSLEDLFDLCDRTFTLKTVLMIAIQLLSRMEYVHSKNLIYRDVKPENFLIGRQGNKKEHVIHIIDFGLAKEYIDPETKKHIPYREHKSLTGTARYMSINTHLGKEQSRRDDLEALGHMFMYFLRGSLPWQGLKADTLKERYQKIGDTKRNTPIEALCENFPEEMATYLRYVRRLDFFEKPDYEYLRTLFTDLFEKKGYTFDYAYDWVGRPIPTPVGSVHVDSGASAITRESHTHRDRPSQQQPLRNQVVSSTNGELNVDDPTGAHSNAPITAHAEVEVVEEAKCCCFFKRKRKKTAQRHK", "test": "Inhibition of recombinant human CK1gamma1 (25 to 355 residues) at 1 uM using KRRRALS(p)VASLPGL as substrate after 40 mins in presence of [gamma-33P]ATP by scintillation counting method"}, "[10]": {"biological_target": "Fibroblast growth factor receptor 3 (Homo sapiens) (UniProt P22607)", "test": "Inhibition of recombinant human FGFR3 (447 to 761 residues) at 1 uM using poly(Glu,Tyr) 4:1 as substrate after 40 mins in presence of [gamma-33P]ATP by scintillation counting method"}, "[11]": {"biological_target": "5'-AMP-activated protein kinase catalytic subunit alpha-2 (Homo sapiens) (UniProt P54646)", "test": "Inhibition of recombinant full-length human AMPKalpha2 at 1 uM using AMARAASAAALARRR as substrate after 40 mins in presence of [gamma-33P]ATP by scintillation counting method"}, "[12]": {"biological_target": "Serine/threonine-protein kinase MRCK beta (Homo sapiens) (UniProt Q9Y5S2)", "test": "Inhibition of recombinant human MRCKbeta (1 to 473 residues) at 1 uM using KKRNRTLTV as substrate after 40 mins in presence of [gamma-33P]ATP by scintillation counting method"}, "[13]": {"biological_target": "3-phosphoinositide-dependent protein kinase 1 (Homo sapiens) (UniProt O15530)", "test": "Inhibition of recombinant human PDK1 (52 to end residues) at 1 uM using KTFCGTPEYLAPEVRREPRILSEEEQEMFRDFDYIADWC (PDKtide) as substrate after 40 mins in presence of [gamma-33P]ATP by scintillation counting method"}, "[14]": {"biological_target": "Mitogen-activated protein kinase 10 (Homo sapiens) (UniProt P53779)", "test": "Inhibition of recombinant full-length human JNK3 at 1 uM using peptide as substrate after 40 mins in presence of [gamma-33P]ATP by scintillation counting method"}, "[15]": {"biological_target": "Activated CDC42 kinase 1 (Homo sapiens) (UniProt Q07912)", "sequence (Q07912 whole entry, looked up, the tested form may be a part)": "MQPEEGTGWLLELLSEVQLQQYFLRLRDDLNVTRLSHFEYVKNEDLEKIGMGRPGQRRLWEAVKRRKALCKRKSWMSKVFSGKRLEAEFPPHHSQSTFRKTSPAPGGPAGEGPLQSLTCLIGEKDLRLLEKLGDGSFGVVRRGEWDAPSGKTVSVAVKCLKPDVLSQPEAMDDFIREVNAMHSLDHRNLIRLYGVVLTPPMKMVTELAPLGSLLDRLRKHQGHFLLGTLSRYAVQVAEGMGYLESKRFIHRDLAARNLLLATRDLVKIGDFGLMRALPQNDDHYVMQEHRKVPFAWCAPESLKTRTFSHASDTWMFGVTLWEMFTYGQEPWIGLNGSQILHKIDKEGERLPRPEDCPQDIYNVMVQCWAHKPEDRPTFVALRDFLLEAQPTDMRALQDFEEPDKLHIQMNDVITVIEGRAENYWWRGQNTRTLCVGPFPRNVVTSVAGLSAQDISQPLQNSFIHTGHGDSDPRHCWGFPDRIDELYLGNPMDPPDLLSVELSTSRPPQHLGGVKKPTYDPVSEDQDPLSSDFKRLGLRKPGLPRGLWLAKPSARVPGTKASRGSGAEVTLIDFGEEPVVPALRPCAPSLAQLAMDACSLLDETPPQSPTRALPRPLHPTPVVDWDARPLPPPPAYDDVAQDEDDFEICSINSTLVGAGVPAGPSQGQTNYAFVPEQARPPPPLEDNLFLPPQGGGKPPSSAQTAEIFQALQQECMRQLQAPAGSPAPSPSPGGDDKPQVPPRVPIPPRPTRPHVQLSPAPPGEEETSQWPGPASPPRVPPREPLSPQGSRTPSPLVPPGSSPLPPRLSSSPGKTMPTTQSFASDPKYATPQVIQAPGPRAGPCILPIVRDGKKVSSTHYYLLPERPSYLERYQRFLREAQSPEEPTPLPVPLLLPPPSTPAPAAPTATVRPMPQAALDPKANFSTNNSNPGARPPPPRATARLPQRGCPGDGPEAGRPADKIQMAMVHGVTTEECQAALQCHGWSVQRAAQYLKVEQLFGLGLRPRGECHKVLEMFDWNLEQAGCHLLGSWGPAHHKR", "test": "Inhibition of recombinant human ACK1 (1 to 389 residues) at 1 uM using EFPIYDFLPAKKK as substrate after 40 mins in presence of [gamma-33P]ATP by scintillation counting method"}, "[16]": {"biological_target": "Insulin receptor-related protein (Homo sapiens) (UniProt P14616)", "sequence (P14616 27-742 limits assumed)": "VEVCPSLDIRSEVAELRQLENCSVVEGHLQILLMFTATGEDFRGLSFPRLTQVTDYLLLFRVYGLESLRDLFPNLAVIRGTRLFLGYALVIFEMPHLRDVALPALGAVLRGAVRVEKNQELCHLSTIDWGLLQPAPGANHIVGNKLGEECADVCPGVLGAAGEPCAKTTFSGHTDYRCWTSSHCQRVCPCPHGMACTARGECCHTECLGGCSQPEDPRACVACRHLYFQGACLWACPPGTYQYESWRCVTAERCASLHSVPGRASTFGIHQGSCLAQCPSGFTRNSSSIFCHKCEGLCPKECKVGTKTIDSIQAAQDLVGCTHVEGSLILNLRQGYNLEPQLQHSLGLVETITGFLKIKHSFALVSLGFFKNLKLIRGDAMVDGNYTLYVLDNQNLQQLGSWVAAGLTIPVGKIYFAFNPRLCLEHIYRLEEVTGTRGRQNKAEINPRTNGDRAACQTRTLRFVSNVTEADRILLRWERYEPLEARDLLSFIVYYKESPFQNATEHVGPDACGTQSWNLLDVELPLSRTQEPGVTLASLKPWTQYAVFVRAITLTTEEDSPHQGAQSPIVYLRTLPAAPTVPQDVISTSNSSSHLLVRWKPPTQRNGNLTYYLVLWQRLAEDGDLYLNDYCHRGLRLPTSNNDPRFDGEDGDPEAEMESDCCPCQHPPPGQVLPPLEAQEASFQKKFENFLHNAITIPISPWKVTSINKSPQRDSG", "sequence (P14616 747-1297 limits assumed)": "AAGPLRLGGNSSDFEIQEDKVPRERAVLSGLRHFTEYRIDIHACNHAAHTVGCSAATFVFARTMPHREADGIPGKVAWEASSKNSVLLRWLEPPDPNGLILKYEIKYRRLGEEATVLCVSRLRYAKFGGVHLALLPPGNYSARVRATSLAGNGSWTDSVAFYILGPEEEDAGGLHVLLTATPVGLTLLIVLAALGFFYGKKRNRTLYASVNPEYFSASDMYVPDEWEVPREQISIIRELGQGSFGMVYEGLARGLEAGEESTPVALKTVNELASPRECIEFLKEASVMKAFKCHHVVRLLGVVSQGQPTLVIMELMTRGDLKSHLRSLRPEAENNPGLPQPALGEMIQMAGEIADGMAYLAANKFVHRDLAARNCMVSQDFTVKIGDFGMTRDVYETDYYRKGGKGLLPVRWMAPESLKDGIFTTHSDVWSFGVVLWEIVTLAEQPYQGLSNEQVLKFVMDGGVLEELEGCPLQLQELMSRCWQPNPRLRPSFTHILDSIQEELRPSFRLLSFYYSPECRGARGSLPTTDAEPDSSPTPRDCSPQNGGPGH", "test": "Inhibition of recombinant human IRR (943 to 1266 residues) at 1 uM using myelin basic protein as substrate after 40 mins in presence of [gamma-33P]ATP by scintillation counting method"}, "[17]": {"biological_target": "Tyrosine-protein kinase Tec (Homo sapiens) (UniProt P42680)", "test": "Inhibition of recombinant activated human Tec (174 to end residues) at 1 uM using EFPIYDFLPAKKK as substrate after 40 mins in presence of [gamma-33P]ATP by scintillation counting method"}, "[18]": {"biological_target": "NUAK family SNF1-like kinase 2 (Homo sapiens) (UniProt Q9H093)", "test": "Inhibition of recombinant full-length human NUAK2 at 1 uM using KKKVSRSGLYRSPSMPENLNRPR as substrate after 40 mins in presence of [gamma-33P]ATP by scintillation counting method"}, "[19]": {"tested_on": "Fibroblast growth factor receptor 1 (Homo sapiens), P11362 [V561M]", "test": "Inhibition of recombinant human FGFR1 V561M mutant (456 to 765 residues) at 1 uM using GGEEEEYFELVKKKK as substrate after 40 mins in presence of [gamma-33P]ATP by scintillation counting method"}, "[20]": {"biological_target": "Phosphorylase b kinase gamma catalytic chain, liver/testis isoform (Homo sapiens) (UniProt P15735)", "sequence (P15735 whole entry, the tested form may be a part, canonical isoform)": "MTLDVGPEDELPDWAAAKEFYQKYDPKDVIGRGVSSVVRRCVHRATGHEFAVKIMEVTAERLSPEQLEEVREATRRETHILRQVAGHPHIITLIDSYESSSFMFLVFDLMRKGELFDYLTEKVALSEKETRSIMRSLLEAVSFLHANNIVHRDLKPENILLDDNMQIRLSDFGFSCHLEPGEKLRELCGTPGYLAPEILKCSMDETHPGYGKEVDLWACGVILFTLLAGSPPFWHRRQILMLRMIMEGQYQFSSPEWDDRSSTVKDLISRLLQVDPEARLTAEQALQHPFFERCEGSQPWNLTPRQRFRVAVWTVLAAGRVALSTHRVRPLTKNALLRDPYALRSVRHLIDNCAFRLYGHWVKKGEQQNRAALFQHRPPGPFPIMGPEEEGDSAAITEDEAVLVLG", "test": "Inhibition of recombinant human PhKgamma2 (1 to 301 residues) at 1 uM using KKLNRTLSFAEPG as substrate after 40 mins in presence of [gamma-33P]ATP by scintillation counting method"}, "[21]": {"biological_target": "Receptor tyrosine-protein kinase erbB-2 (Homo sapiens) (UniProt P04626)", "test": "Inhibition of recombinant human ErbB2 (676 to end residues) at 1 uM using poly(Glu,Tyr) 4:1 as substrate after 40 mins in presence of [gamma-33P]ATP by scintillation counting method"}, "[22]": {"biological_target": "STE20-like serine/threonine-protein kinase (Homo sapiens) (UniProt Q9H2G2)", "sequence (Q9H2G2 whole entry, looked up, the tested form may be a part)": "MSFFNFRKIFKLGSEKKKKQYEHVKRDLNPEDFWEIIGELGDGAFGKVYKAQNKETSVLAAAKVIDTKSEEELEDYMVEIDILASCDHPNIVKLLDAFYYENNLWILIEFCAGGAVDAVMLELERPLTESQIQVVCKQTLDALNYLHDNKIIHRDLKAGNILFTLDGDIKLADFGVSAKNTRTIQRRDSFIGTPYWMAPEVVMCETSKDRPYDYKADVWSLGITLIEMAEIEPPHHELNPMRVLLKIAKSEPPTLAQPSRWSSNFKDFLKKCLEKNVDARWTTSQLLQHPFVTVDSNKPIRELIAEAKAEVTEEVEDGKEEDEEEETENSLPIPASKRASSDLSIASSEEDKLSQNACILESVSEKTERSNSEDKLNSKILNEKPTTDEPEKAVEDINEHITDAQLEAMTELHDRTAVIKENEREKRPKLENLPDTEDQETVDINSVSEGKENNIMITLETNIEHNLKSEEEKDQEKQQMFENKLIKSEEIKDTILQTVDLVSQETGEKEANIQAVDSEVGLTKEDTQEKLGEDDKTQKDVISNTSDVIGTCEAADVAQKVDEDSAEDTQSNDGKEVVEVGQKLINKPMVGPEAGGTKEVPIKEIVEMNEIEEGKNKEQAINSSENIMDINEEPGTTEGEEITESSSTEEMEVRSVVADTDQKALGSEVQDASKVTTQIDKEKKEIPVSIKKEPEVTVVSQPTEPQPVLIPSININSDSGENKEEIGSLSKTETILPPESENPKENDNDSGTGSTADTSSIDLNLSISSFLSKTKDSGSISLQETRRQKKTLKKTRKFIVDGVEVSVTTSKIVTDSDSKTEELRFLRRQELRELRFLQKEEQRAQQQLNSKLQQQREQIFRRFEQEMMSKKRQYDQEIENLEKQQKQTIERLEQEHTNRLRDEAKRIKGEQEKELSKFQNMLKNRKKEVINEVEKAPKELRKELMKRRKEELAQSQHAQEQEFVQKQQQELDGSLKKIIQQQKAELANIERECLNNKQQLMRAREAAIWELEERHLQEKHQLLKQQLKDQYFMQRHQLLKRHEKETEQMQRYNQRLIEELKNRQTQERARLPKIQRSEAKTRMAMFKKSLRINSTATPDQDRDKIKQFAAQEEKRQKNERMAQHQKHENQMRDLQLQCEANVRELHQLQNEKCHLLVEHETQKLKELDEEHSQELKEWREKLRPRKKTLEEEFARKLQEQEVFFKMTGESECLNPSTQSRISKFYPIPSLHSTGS", "test": "Inhibition of recombinant human SLK (1 to 373 residues) at 1 uM using RLGRDKYKTLRQIRQ as substrate after 40 mins in presence of [gamma-33P]ATP by scintillation counting method"}, "[23]": {"biological_target": "Phosphatidylinositol 4-phosphate 5-kinase type-1 gamma (Homo sapiens) (UniProt O60331)", "test": "Inhibition of recombinant full-length human PIP5K1gamma at 1 uM using phosphatidylinositol 4-phosphate/phosphatidylserine as substrate after 40 mins in presence of [gamma-33P]ATP by scintillation counting method"}}, "data": [{"molecule": "CS(=O)(=O)c1ccc(-n2nc(-c3cnc4[nH]ccc4c3)c3c(N)ncnc32)cc1", "values": [{"measurement": "inhibition", "setting": "[1]", "value": 4, "unit": "%"}, {"measurement": "inhibition", "setting": "[2]", "value": 3, "unit": "%"}, {"measurement": "inhibition", "setting": "[3]", "value": 12, "unit": "%"}, {"measurement": "inhibition", "setting": "[4]", "value": 14, "unit": "%"}, {"measurement": "inhibition", "setting": "[5]", "value": 8, "unit": "%"}, {"measurement": "inhibition", "setting": "[6]", "value": -2, "unit": "%"}, {"measurement": "inhibition", "setting": "[7]", "value": -8, "unit": "%"}, {"measurement": "inhibition", "setting": "[8]", "value": 5, "unit": "%"}, {"measurement": "inhibition", "setting": "[9]", "value": 4, "unit": "%"}, {"measurement": "inhibition", "setting": "[10]", "value": 5, "unit": "%"}, {"measurement": "inhibition", "setting": "[11]", "value": -9, "unit": "%"}, {"measurement": "inhibition", "setting": "[12]", "value": -4, "unit": "%"}, {"measurement": "inhibition", "setting": "[13]", "value": -6, "unit": "%"}, {"measurement": "inhibition", "setting": "[14]", "value": 8, "unit": "%"}, {"measurement": "inhibition", "setting": "[15]", "value": 44, "unit": "%"}, {"measurement": "inhibition", "setting": "[16]", "value": -7, "unit": "%"}, {"measurement": "inhibition", "setting": "[17]", "value": 55, "unit": "%"}, {"measurement": "inhibition", "setting": "[18]", "value": 18, "unit": "%"}, {"measurement": "inhibition", "setting": "[19]", "value": 12, "unit": "%"}, {"measurement": "inhibition", "setting": "[20]", "value": 16, "unit": "%"}, {"measurement": "inhibition", "setting": "[21]", "value": 6, "unit": "%"}, {"measurement": "inhibition", "setting": "[22]", "value": 7, "unit": "%"}, {"measurement": "inhibition", "setting": "[23]", "value": 3, "unit": "%"}]}]}
